Reference: patent publication EP0675126A1, “AMYLOID BETA-PROTEIN AGGLUTINATION AND/OR DEPOSITION INHIBITOR” (TEIJIN LIMITED, priority 1993, dated 1995)

What was measured:
[1] = oral administration to rats; cited from earlier work
[2] = administered orally to patients at about 300-600 mg/day; cited from earlier work
β1-35 peptide = biological target: T1, β1-35 peptide (Homo sapiens, UniProt P05067); experiment: β-amyloid protein aggregation inhibition by SDS-PAGE (Example 1); type: biochemical; conditions: drug agent 100 µg/ml; β1-35 peptide 2 mg/ml; room temperature; control and methanol solutions aggregated by the 7th day
T1 construct: made in house; host or cells: chemical solid-phase synthesis (Fmoc)
T1 sequence (P05067 672-706): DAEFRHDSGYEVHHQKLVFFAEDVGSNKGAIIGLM
Source text: When synthesized β-amyloid protein is subjected to SDS-PAGE, a 3-4 kDa band due to the peptide monomer is observed. However, when the protein begins to aggregate, this monomer band becomes thinner and a smear is observed at the high molecular end (Tomiyama, et al. 1994, J. Biol. Chem. 269, 10205-10208). The inhibitory activity of a drug agent against β-amyloid protein aggregation may be determined by measuring the aggregation period of β-amyloid in admixture with the drug agent based on the decrease in peptide monomer or appearance of smearing observed with SDS-PAGE.
Specifically, 10 µl of solution is taken from a reagent solution containing β-amyloid protein and a drug agent, an equivalent of a sample buffer for electrophoresis (20 mM Tris-HCl buffer, pH 6.8, 40% glycerin, 2% SDS, 2% β-mercaptoethanol) is added thereto, and the mixture is boiled at 100°C for 5 minutes. Next, 10 µl of the solution is placed on a 15-25% polyacrylamide gradient gel for electrophoresis in a Tris-glycine buffered system. After completion of the electrophoresis, the gel is stained with 0.2% Coomassie brilliant blue solution and the amount of peptide monomer (band thickness) and presence of smearing is observed. […]

Row | Structure (SMILES) | LD₅₀ value [1] | maximum blood concentration [2] | reduction in peptide monomer and appearance of smear (β1-35 peptide aggregation) (β1-35 peptide)
1 | CO[C@H]1/C=C/O[C@@]2(C)Oc3c(C)c(O)c4c(O)c(c(/C=N/N5CCN(C)CC5)c(O)c4c3C2=O)NC(=O)/C(C)=C\C=C\[C@H](C)[C@H](O)[C@@H](C)[C@@H](O)[C@@H](C)[C@H](OC(C)=O)[C@@H]1C [rifampicin, Rifampicin] | 1720 mg/kg | about 10 µg/ml | –
2 | COC1C=COC2(C)Oc3c(C)c(O)c4c(O)c(cc(OCC(=O)O)c4c3C2=O)NC(=O)C(C)=CC=CC(C)C(O)C(C)C(O)C(C)C(OC(C)=O)C1C (stereo not shown) [rifamycin B, Rifamycin B] | – | – | no reduction in peptide monomer or smearing was observed up to the 14th day after dissolution
3 | CO[C@H]1/C=C/O[C@@]2(C)Oc3c(C)c(O)c4c(O)c(cc(O)c4c3C2=O)NC(=O)/C(C)=C\C=C\[C@H](C)[C@H](O)[C@@H](C)[C@@H](O)[C@@H](C)[C@H](OC(C)=O)[C@@H]1C [rifamycin SV, Rifamycin SV] | – | – | no reduction in peptide monomer or smearing was observed up to the 14th day after dissolution
